The source of these data is PMC9963121, “Development of Combretastatin A-4 Analogues as Potential Anticancer Agents with Improved Aqueous Solubility” (Molecules, 2023).

The subject of data set [1] is AGS gastric cancer cell. Description: MTT cell growth inhibition assay, AGS gastric cancer cells. The format is cell-based. The conditions noted are these: Homo sapiens, mean ± SD of three experiments. An excerpt: (§1) Initially, we designed and synthesised seven compounds—9a and 12a1–12a6—and evaluated the anticancer activity and aqueous solubility. We evaluated the cytotoxic effects of these stilbene nitrile analogues against a panel of four human cancer cell lines (HCT-116, BEL-7402, MCF-7 and AGS) and two human non-cancerous normal cell lines (L-02 and MCF-10A), using CA-4 as a control. The compounds were screened for aqueous solubility in 0.01 M PBS using a high throughput UV method. […] It is possible that the size of the nitrogen heterocycle had little effect on the activity of these compounds. […] The aqueous solubility of all the compounds 12a1–12a6 was higher than that of 9a, particularly that of 12a1 and 12a2 containing piperazine rings. […] Of the six compounds with improved aqueous solubility, 12a1 had the best activity.
(§2) All human cell lines were used in this study. AGS gastric cancer cell, BEL-7402 liver cancer cell, HCT-116 colorectal cancer cell, L-02 normal liver cell, MCF-7 breast cancer cell, and MCF-10A normal breast cell were initially purchased from American Type Culture Collection (ATCC, Manassas, VA, USA). RPMI-1640 media, DMEM and FBS, were provided by Gibco Company. The cells were maintained in DMEM or RPMI-1640, supplemented with 10% FBS, 100 IU/mL penicillin and […] streptomycin, and at 37 °C in a humidified atmosphere containing 5% CO2.
(§3) The experiment was carried out according to the method of reference.

For data set [2], the system named is L-02 normal liver cell. Description: MTT cell growth inhibition assay, L-02 normal liver cells. The class given is cell-based. The conditions noted are these: Homo sapiens, mean ± SD of three experiments.
From the text: as §1, §2, §3

Data set [3] deals with BEL-7402 liver cancer cell. Description: MTT cell growth inhibition assay, BEL-7402 liver cancer cells. The class given is cell-based. The conditions noted are these: Homo sapiens, mean ± SD of three experiments, read-out: IC50 BEL-7402 Hepatoma Cells.
From the text: as §1, §2, §3

Data set [4] relates to MCF-10A normal breast cell. Description: MTT cell growth inhibition assay, MCF-10A normal breast cells. The class given is cell-based. The conditions noted are these: Homo sapiens, mean ± SD of three experiments, read-out: IC50 MCF-10A Normal Breast Epithelial Cells.
From the text: as §1, §2, §3

Data set [5] relates to MCF-7 breast cancer cell. The data set can be described thus: MTT cell growth inhibition assay, MCF-7 breast cancer cells. The format is cell-based. Conditions: Homo sapiens, MCF7, mean ± SD of three experiments.
From the text: as §1, §2, §3

A short description of data set [6]: Aqueous solubility in 0.01 M PBS, high throughput UV method. The format is physicochemical. The conditions noted are these: for solubility thermodynamic at 1.5 h: aqueous phosphate buffer, aqueous buffer, sodium phosphate buffer 0.01 M, pH 7.4, 22 ± 2 °C, mean ± SD; for Water solubility (in words): Figure 1.
From the text: as §1
The aqueous solubility was determined as a previously reported procedure. Put simply, a certain amount of powdered compound was placed in a 2 mL centrifuge tube and mixed with an appropriate volume of aqueous phosphate buffer (10 mM, pH 7.4) to make the whole system supersaturated. The mixtures were sonicated (KQ5200DE numerical control ultrasonic cleaner, Kunshan Ultrasonic Instrument Co., Ltd., SuZhou, China) for 20 min. After sonication, the mixture was allowed to equilibrate at RT (22 ± 2 °C) for 1.5 h with vortex shaking (1200 rpm). Then centrifuged at 3000 rpm for 15 min (1-14k, sigma, Darmstadt, Germany), the supernatant was filtered with a 0.22 µM filter membrane. And then, take 150 µL of filtrate and add it to 96-well UV plate with triplicate. Draw 150 μL of blank solution was added into plate as blank control. The 96-well UV plate prepared above was read on a Synergy HTX Multifunctional Microplate Reader (BioTek, Vermont, USA) at 294 nm. The absorbance of the sample was corrected according to the UV response of the sample and blank solution, and the corrected UV response values were used for solubility calculations by bringing into the standard curve of the compound. […]
1.5. Solubility Assessment
The aqueous solubility was determined as previously reported using the high throughput solubility screens procedure published by Bruno Bard et al [9. 10]. Put simply, a certain amount of powdered compound was placed in a 2 ml centrifuge tube and mixed with an appropriate volume of aqueous phosphate buffer (0.01 M, pH 7.4) to make the whole system supersaturated. The mixtures were sonicated (KQ5200DE numerical control ultrasonic cleaner, Kunshan Ultrasonic Instrument Co., Ltd., China) for 20 min. After sonication, the mixture was allowed to equilibrate at room temperature (22 ± 2°C) for 1.5 h with vortex shaking (1200 rpm). Then the centrifuge tube was put into the centrifuge (1-14k, sigma, Germany), centrifuged with 3000 rpm for 15 minutes, 0.22 µM filter membrane filtration supernatant, then take 150 µl filtrate and add it to 96-well UV plate, with three well for each compound. Draw 150 μL blank solution were added into 96 well-plate as blank control. The 96-well UV […]
plate prepared above was read on a SynergyHTX Multifunctional microplate reader (BioTek, USA) at 338 nm (compounds 12a-12d and 15-20) or 370 nm (compounds 9a-d). The absorbance of the sample was corrected according to the UV response of the sample and blank solution, and the corrected UV responses value were used for solubility calculations by bring into the standard curve of the compound. […]

Data set [7] deals with HCT-116 colorectal cancer cell. Description: MTT cell growth inhibition assay, HCT-116 colorectal cancer cells. The class given is cell-based, human. Conditions: for IC50: Homo sapiens, HCT-116, MTT, mean ± SD of three experiments.
From the text: as §1, §2, §3

Data set [8] can be described thus: Configuration (cis/trans) stability. The conditions noted are these: Figure 1; cis/trans olefin configuration. An excerpt:
This vascular disrupting activity causes the tumor tissue vascular collapse, cutting down the oxygen and nutrient supply to tumor cells, leading to tumor cell death.
(compound 2, Figure 1). Still, the methyl group is difficult to modify chemically. […] Lipinski proposed the theory of the “Rule of 5” in 1997 [19], which is used to evaluate the pharmacokinetic characteristics of small molecule drugs.

Details of data set [9]: method as in PMID 12067983, PMID 12807934, PMID 14645433. The conditions noted are these: clinical data, intravenous CA-4P; cited from earlier work.
Data set [10] is described as follows: Compound stability in rat plasma, HPLC. The format is in vitro ADME. The conditions noted are these: 37 °C. On the procedure:
Blood was collected from SD rats (200–250 g, male and female, Animal Experimental Center of Yanbian University) into heparin tubes, and supernatant plasma was collected after centrifugation.
A certain amount of 9a and 12a1 were accurately weighed and mixed with rat plasma. After incubation at 37 ℃ for 0, 6, 12, 24 and 36 h, the plasma samples were treated with methanol and analyzed by HPLC to determine their stability in plasma.
A HITACHI Primaide HPLC liquid chromatography system was equipped and used for all analyses. Chromatographic separation was performed on a Welch Ultimate XB-C18 column (3.9 mm × 150 mm, 5 μm; Welch, China). The analytes were eluted using a gradient method with a flow rate of 1 mL/min. Mobile phase A was Ultra pure water, and mobile phase B was methanol according to the following gradient: (1) The gradient elution conditions of 9a: 0 to 8 min, 55% to 67% B; 8.1 to 15 min, 67% to 90% B; 15.1 to 25 min, 55% B. (2) The gradient elution conditions of 12a1: 0 to 9 min, 55% to 65% B; 9.1 to 12 min, 65% to 75% B; 12.1 to 15 min, 75% to 85% B; 15.1 to 20 min, 90% B; 20.1 to 30 min, 55% B. The injection volume was 3 μL. The column temperature was set at 40 °C. […]
1.6. Plasma stability assessment
Prepare plasma:blood was collected from SD rats (200-250g, male and female, Animal Experimental Center of Yanbian University) into heparin tubes, and supernatant plasma was collected after centrifugation.
A certain amount of 9a and 12a1 were accurately weighed and mixed with rat plasma.
After incubation at 37℃ for 0 h, 6 h, 12 h, 24 h and 36 h, the plasma samples were treated with methanol and analyzed by HPLC to determine their stability in plasma.
Analytical instrument and conditions:
A HITACHI Primaide HPLC liquid chromatography system equipped was used for all analyses. Chromatographic separation was performed on a Welch Ultimate XB-C18 column (3.9 mm × 150 mm, 5 μm; Welch, China). The analytes were eluted using a gradient method with a flow rate of 1 mL/min. Mobile phase A was Ultra pure water, and mobile phase B was methanol according to the following gradient: (1). The gradient elution conditions of 9a: 0 to 8 minutes, 55% to 67% B; 8.1 to 15 minutes, 67% to 90% B; 15.1 to 25 minutes, 55% B. (2). The gradient elution conditions of […]

Details of data set [11]: method as in earlier work. The conditions noted are these: cited from earlier work.

Bounds are passed on as bounds.

On to `COc1cc(/C(C#N)=C/c2ccc(NC(=O)CN3CCNC[C@@H]3C)cc2)cc(OC)c1OC.Cl` [compound 19], for which the melting point (usually the temperature of the solid-liquid transition) fell in the range of 200 to 202 °C. Moreover, the midpoint of inhibition in data set [1], the IC50, lay at 5.58 ± 2.33 µM. It took 23 ± 2.05 µM to reach half-maximal inhibition in [2] (IC50). For the same compound, the IC50 – broadly, the point on the concentration scale where inhibition reaches its midpoint – in data set [3] is 4.72 ± 0.99 µM. In addition, in [4], the IC50 is 16.3 ± 2.14 µM. The compound further displayed an IC50 in [5] of 15.4 ± 1.88 µM. Also, in [6], the thermodynamic solubility – broadly, solubility found after equilibrating the solid with the medium – at 1.5 h was 79.5 ± 11.1 µg/mL. In addition, the IC50 in data set [7] amounted to 8.18 ± 0.67 µM.
For the compound `COc1ccc(/C=C\c2cc(OC)c(OC)c(OC)c2)cc1OP(=O)([O-])[O-].[Na+].[Na+]` [CA-4P, reference compound], the “Configuration stability (in words)” value in [8] is given as “Configuration instability”. The half-life result in [9] was “about 30 min”. In addition, in data set [6], the “Water solubility (in words)” value is recorded as “Good water solubility”. Besides, in [7], the IC50 was 0.59 ± 0.22 µM.
On to `COc1cc(/C(C#N)=C/c2ccc(N)cc2C)cc(OC)c1OC` [9b], for which the melting point is 224 to 230 °C. The compound also showed an IC50 in [1] of 0.8 ± 0.14 µM. In data set [2], this compound had an IC50 of 6.01 ± 1.35 µM. In data set [3], the concentration for half-maximal inhibition (IC50) is 0.16 ± 0.02 µM. In [4], the IC50 is above 100 µM. For the same compound, the IC50 in data set [5] is above 100 µM. Besides, in [6], the solubility (thermodynamic) at 1.5 h amounted to 1.2 ± 0.3 µg/mL. The “Decrease of aqueous solubility compared with 9a” value in data set [6] (ratio to 9a) was “nine times”. This compound also yielded an IC50 in [7] of 0.16 ± 0.02 µM.
For the compound `COc1cc(/C(C#N)=C/c2ccc(N)cc2)cc(OC)c1OC` [9a, (Z)-3-(4-aminophenyl)-2-(3,4,5-trimethoxyphenyl)acrylonitrile], the IC50 in [1] is 0.12 ± 0.01 µM; in data set [2], 20.7 ± 3.39 µM; in data set [3], 0.14 ± 0.01 µM; in [4], above 100 µM; in data set [5], 4.82 ± 1.57 µM; in data set [7], 0.02 ± 0.01 µM. Also, the “Decrease of HPLC peak area in rat plasma” value in data set [10] (within 36 h, UV 294 nm) is recorded as “approximately 33%”. In addition, the “Plasma stability (in words)” value in [10] (rat plasma, 24 h) is given as “retained plasma stability over 24 h”. The “Water solubility (in words)” value in [6] is on record as “Poor water solubility”. In [6], the solubility (thermodynamic) at 1.5 h was 10.8 ± 0.7 µg/mL. The “Aqueous solubility relative to CA-4” value in data set [6] (ratio to CA-4) is given as “five times lower”. Moreover, in data set [6] (ratio to compound 2), the “Improvement in aqueous solubility over compound 2” value is given as “two-fold”. The “Selectivity for HCT-116 cancer cells over L-02 normal cells” value in data set [7] (ratio of IC50 values L-02 / HCT-116) turned out to be 1000 times. In addition, in [7] (ratio to CA-4), the “Activity against HCT-116 relative to CA-4” value is given as “eight times higher”.
For the compound `COc1ccc(/C=C\c2cc(OC)c(OC)c(OC)c2)cc1O` [CA-4, Combretastatin A-4], the half-inhibitory concentration (IC50) in data set [1] was 3.42 ± 0.03 µM; in [2], 1.1 ± 0.03 µM; in data set [5], 0.22 ± 0.09 µM; in [7], 0.16 µM. Further, the “Water solubility (in words)” value in data set [6] is “Poor water solubility”. Moreover, the solubility (thermodynamic) at 1.5 h in [6] worked out at 57.7 µg/mL. Further, the “Rat Plasma Protein Binding Rate” value in data set [11] is 72.3 ± 6.9%.
As to `COc1cc(/C(C#N)=C/c2ccc(NC(=O)CN3CCNC[C@H]3C)cc2)cc(OC)c1OC.Cl` [compound 20], the melting point was in the range of 200 to 202 °C. In addition, in data set [1], the IC50 amounted to 15.2 ± 0.76 µM. This compound displayed an IC50 in data set [2] of 25 ± 2.94 µM. Further, the IC50 in data set [3] was 6.53 ± 1.67 µM. Also, the IC50 in data set [4] came out at 17.8 ± 2.78 µM. Also, the IC50 in data set [5] was 17.3 ± 2.31 µM. Moreover, the thermodynamic solubility at 1.5 h in data set [6] was determined as 111 ± 12.3 µg/mL. The same compound had an IC50 in [7] of 10.5 ± 2.32 µM.
